Here are results for one molecule from patent US8436047B2, “Preventive or ameliorating agent for liver disease involving hepatopathy” (Suntory Holdings Limited, priority 2004, dated 2013).

This assay has as its system hepatopathy induced by galactosamine (GalN/LPS). Put plainly: Evaluation of 5,8,11-eicosatrienoic acid ethyl ester in an animal model of hepatopathy: serum GOT after GalN/LPS. In kind it is in vivo. The note with it: male ddY mice, 10 mg/kg orally for one week, then GalN 800 mg/kg / LPS 25 μg/kg i.p., blood six hours after; control group 1024±94 IU/L. As to the method:
Four-week-old male ddY mice were orally given 10 mg/kg of 5,8,11-eicosatrienoic acid ethyl ester (mead acid) purified from the lipid SUNTGM17 prepared in Reference Example 1 for one week, and then they were intraperitoneally given physiological saline in which D-galactosamine and lipopolysaccharide were dissolved to 800 mg/kg and 25 μg/kg and mixed (GalN/LPS). Six hours after the GalN/LPS administration, blood was drawn, serum was separated, and GPT and GOT activities in the serum were determined, which confirmed that the GOT activity was 1024±94 IU/L in the control diet group, whereas it was 413±37 IU/L in the mead acid diet group, indicating a significant suppression of hepatopathy.

For the molecule `CCCCCCCCC=CCC=CCC=CCCCC(=O)OCC` [5,8,11-eicosatrienoic acid ethyl ester], the “GOT activity in the serum” value stood at 413±37 IU/L.
